In patent US8343973B2, “Phenoxymethyl heterocyclic compounds” (EnVivo Pharmaceuticals, Inc., priority 2009, dated 2013):
pIC50: −log10 of the molar value.

Test system: not given
Test: not given
Details: rats; cited from earlier work

SMILES	apomorphine induced stereotypes	haloperidol induced catalepsy	rat brain dopamine levels
COc1ccc(Cc2nccc3cc(OC)c(OC)cc23)cc1OC [papaverine]	reduces	increases	reduces

Target: Human PDE10A1 (Homo sapiens, UniProt Q9Y233)
Test: hPDE10A1 enzyme inhibition ([3H]-cAMP hydrolysis, scintillation)
Type: biochemical
Details: Human PDE10A1, [3H]-cAMP substrate; read-out: hPDE10A1 IC50 Band
Description: hPDE10A1 Enzyme Activity: 50 μl samples of serially diluted Human PDE10A1 enzyme were incubated with 50 μl of [^3H]-cAMP for 20 minutes (at 37° C.). Reactions were carried out in Greiner 96 deep well 1 ml master-block. The enzyme was diluted in 20 mM Tris HCl pH7.4 and [^3H]-cAMP was diluted in 10 mM MgCl2, 40 mM Tris.HCl pH 7.4. The reaction was terminated by denaturing the PDE enzyme (at 70° C.) after which [^3H]-5′-AMP was converted to [^3H]-adenosine by adding 25 μl snake venom nucleotidase and incubating for 10 minutes (at 37° C.). Adenosine, being neutral, was separated from charged cAMP or AMP by the addition of 200 μl Dowex resin. Samples were shaken for 20 minutes then centrifuged for 3 minutes at 2,500 r.p.m. 50 μl of supernatant was removed and added to 200 μl of MicroScint-20 in white plates (Greiner 96-well Optiplate) and shaken for 30 minutes before reading on Perkin Elmer TopCount Scintillation Counter.
hPDE10A1 Enzyme Inhibition: To check inhibition profile 11 μl of serially diluted inhibitor was added to 50 μl of [^3H]-cAMP and 50 ul of diluted Human PDE10A1 and assay was carried out as in the enzyme activity assay. Data was analysed using Prism software (GraphPad Inc).

Sequence of Human PDE10A1 (Q9Y233 1-779 isoform Q9Y233-1): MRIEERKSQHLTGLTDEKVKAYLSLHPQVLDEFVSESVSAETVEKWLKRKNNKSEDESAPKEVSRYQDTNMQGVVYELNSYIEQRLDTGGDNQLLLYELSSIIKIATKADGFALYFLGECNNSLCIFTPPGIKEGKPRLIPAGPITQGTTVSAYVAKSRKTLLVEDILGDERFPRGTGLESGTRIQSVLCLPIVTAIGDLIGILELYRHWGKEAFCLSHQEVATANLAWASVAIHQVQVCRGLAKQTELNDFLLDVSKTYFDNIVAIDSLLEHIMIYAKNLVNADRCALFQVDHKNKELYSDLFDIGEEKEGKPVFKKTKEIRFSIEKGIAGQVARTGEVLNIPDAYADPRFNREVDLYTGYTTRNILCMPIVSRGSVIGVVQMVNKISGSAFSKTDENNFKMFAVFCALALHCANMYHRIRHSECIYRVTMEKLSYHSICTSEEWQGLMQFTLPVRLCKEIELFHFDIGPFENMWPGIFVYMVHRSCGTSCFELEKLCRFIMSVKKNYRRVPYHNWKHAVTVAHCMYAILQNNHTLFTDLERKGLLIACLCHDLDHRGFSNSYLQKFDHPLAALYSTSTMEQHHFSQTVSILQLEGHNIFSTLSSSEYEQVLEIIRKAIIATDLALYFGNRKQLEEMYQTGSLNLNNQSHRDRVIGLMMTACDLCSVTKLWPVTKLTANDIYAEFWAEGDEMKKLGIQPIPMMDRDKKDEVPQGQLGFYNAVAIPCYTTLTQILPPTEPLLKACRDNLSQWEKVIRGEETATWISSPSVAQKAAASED

SMILES	pIC50
CC1(C)OC(c2ccc(C#N)cc2)=C(c2ccc(OCc3cn4ccccc4n3)cc2)C1=O [4-(3-(4-(imidazo[1,2-a]pyridin-2-ylmethoxy)phenyl)-5,5-dimethyl-4-oxo-4,5-dihydrofuran-2-yl)benzonitrile]	≥ 8.00
COc1ccc(C2=C(c3ccc(OCc4ncc(C)cc4C)cc3)C(=O)C(C)(C)O2)cc1 [4-(4-((3,5-dimethylpyridin-2-yl)methoxy)phenyl)-5-(4-methoxyphenyl)-2,2-dimethylfuran-3(2H)-one]	≥ 8.00
COc1ccc(C2=C(c3ccc(OCc4nc5ccccn5c4Cl)cc3)C(=O)C(C)(C)O2)cc1 [4-(4-((3-chloroimidazo[1,2-a]pyridin-2-yl)methoxy)phenyl)-5-(4-methoxyphenyl)-2,2-dimethylfuran-3(2H)-one]	≥ 8.00
COc1ccc(C2=C(c3ccc(OCc4cn5cc(Cl)ccc5n4)cc3)C(=O)C(C)(C)O2)cc1 [4-(4-((6-Chloroimidazo[1,2-a]pyridin-2-yl)methoxy)phenyl)-5-(4-methoxyphenyl)-2,2-dimethylfuran-3(2H)-one]	≥ 8.00
COc1ccc(C2=C(c3ccc(OCc4cn5nc(Cl)ccc5n4)cc3)C(=O)C(C)(C)O2)cc1 [4-(4-((6-chloroimidazo[1,2-b]pyridazin-2-yl)methoxy)phenyl)-5-(4-methoxyphenyl)-2,2-dimethylfuran-3(2H)-one]	7.30 to 8.00
COc1ccc(C2=C(c3ccc(OCc4cn5ccccc5n4)cc3)C(=O)C(C)(C)O2)cc1 [4-(4-(imidazo[1,2-a]pyridin-2-ylmethoxy)phenyl)-5-(4-methoxyphenyl)-2,2-dimethylfuran-3(2H)-one]	≥ 8.00
COc1ccc(C2=C(c3ccc(OCc4cn5ncccc5n4)cc3)C(=O)C(C)(C)O2)cc1 [4-(4-(imidazo[1,2-b]pyridazin-2-ylmethoxy)phenyl)-5-(4-methoxyphenyl)-2,2-dimethylfuran-3(2H)-one]	≥ 8.00
COc1ccc(C2=C(c3ccc(OCc4ccc5nccn5n4)cc3)C(=O)C(C)(C)O2)cc1 [4-(4-(imidazo[1,2-b]pyridazin-6-ylmethoxy)phenyl)-5-(4-methoxyphenyl)-2,2-dimethylfuran-3(2H)-one]	7.30 to 8.00
Cc1ccc(COc2ccc(C3=C(c4ccc(C#N)cc4)OC(C)(C)C3=O)cc2)nc1 [4-(5,5-dimethyl-3-(4-((5-methylpyridin-2-yl)methoxy)phenyl)-4-oxo-4,5-dihydrofuran-2-yl)benzonitrile]	≥ 8.00
COc1ccc(C2=C(c3ccc(OCc4nc5ccccn5c4C)cc3)C(=O)C(C)(C)O2)cc1 [5-(4-Methoxyphenyl)-2,2-dimethyl-4-(4-((3-methylimidazo[1,2-a]pyridin-2-yl)methoxy)phenyl)furan-3(2H)-one]	7.30 to 8.00
COc1ccc(C2=C(c3ccc(OCc4cn5c(C)cccc5n4)cc3)C(=O)C(C)(C)O2)cc1 [5-(4-Methoxyphenyl)-2,2-dimethyl-4-(4-((5-methylimidazo[1,2-a]pyridin-2-yl)methoxy)phenyl)furan-3(2H)-one]	≥ 8.00
COc1ccc(C2=C(c3ccc(OCc4ccc(C)cn4)cc3)C(=O)C(C)(C)O2)cc1 [5-(4-methoxyphenyl)-2,2-dimethyl-4-(4-((5-methylpyridin-2-yl)methoxy)phenyl)furan-3(2H)-one]	≥ 8.00
